Assay results published in patent US20050192285A1, “Method of treatment” (priority 2000, published 2005).
Where “and” joins values, the source holds several entries; their conditions need not be identical. Equal values may be shown once.

Key:
[1] = cited from earlier work
[2] = GLOBE study: RTI-related hospitalizations over 26 weeks; format: in vivo, human; conditions: for percentage of patients hospitalized for RTI-related conditions / cumulative number of patients hospitalized for RTI-related conditions: 26 week study period; for cumulative number of patients hospitalized for RTI-related conditions: ITT (GEMI N=214, CLARI N=224)
Method: (§1) Prospective, 26 week, double-blind, observational parallel/follow-on study to an acute treatment efficacy and safety study (study 068) (Wilson, et al., Abstracts of the 40th Interscience Conference of Clinical Microbiology and Infectious Diseases, Toronto, Canada, Abstract 815 (2000)) in which patients randomly received a single course of either 5 days of oral GEMI 320mg once daily (o.d.) or 7 days of oral CLARI 500 mg twice daily (b.d.) for AECB (Wilson, et al., Abstracts of the 40th Interscience Conference of Clinical Microbiology and Infectious Diseases, Toronto, Canada, Abstract 815 (2000)).
(§2) Patients were assessed at screening (visit 1) at day 28-35 (visit 2) then at weeks 12 (visit 3) and 26 (visit 4) and by telephone at weeks 8, 17 and 21.
(§3) Information was collected on: recurrent episodes of AECB requiring antimicrobial treatment; use of medical resources related to respiratory tract infection (RTI), including RTI-related:- hospitalizations, physician visits and antimicrobial therapy; time off work and usual activities; and negative impact on performance at work or during usual activities.
Medical resource utilization was analyzed on cumulative data across all patients in the ITT population.

[3] = GLOBE study: recurrence of AECB requiring antimicrobial treatment over 26 weeks; format: in vivo, human; conditions: for Difference GEMI-CLARI in % patients with no recurrences / % patients resolved and with no recurrences of AECB: ITT; for % patients resolved and with no recurrences of AECB: GEMI 320 mg o.d./5 days, CLARI 500 mg b.d./7 days
Method: Background: Few health outcome studies have been reported for antimicrobial treatment of acute infections. In one study, trends favoring ciprofloxacin versus ‘usual care’ in terms of clinical outcomes were found (Grossman, et al., Chest, 113:131-141 (1998)). In this double-blind, prospective long-term study, patients who enrolled into a study comparing 320 mg gemifloxacin (GEMI) once daily (o.d.)/5 days with 500 mg clarithromycin (CLARI) twice daily (b.d.)/7 days for the treatment of AECB, and agreed at enrollment to continue in the study for up to 26 weeks, were assessed for clinical status and use of health care resources.
Methods: Clinical assessments were performed at screening (day 0), week 4-5 (end of acute study), weeks 12 and 26 and by telephone at weeks 8, 17 and 21.
as §1
All patients entering study 068 at centers in the USA and Canada were asked to participate in the GLOBE study.
as §2, §3
Clinical outcomes were analyzed for patients in the intention to treat population (ITT) who were available for assessment at 26 weeks (visit 4).

[4] = system: H. influenzae; conditions: subset of patients with daily sputum cultures; p=0.02; cited from earlier work

Row | Compound | RTI-related hospitalization days per 100 patients ([2]; 26-week study period) | Cumulative number of RTI-related hospitalization days, mean (SD) ([2]; 26-week study period, ITT) | Cumulative number of RTI-related hospitalization days, median (range) ([2]; 26-week study period, ITT) | percentage of patients hospitalized for RTI-related conditions ([2]; ITT) | cumulative number of patients hospitalized for RTI-related conditions [2] | RTI-related hospitalizations across all visits, percentage ([2]; 26 weeks, ITT) | cumulative number of RTI-related hospitalizations across all visits ([2]; 26 weeks, ITT) | patients with a recurrence of AECB ([3]; by week 26) | % patients resolved and with no recurrences of AECB ([3]; visit 2 (day 28-35)) | % patients resolved and with no recurrences of AECB ([3]; visit 3 (week 12)) | % patients resolved and with no recurrences of AECB ([3]; visit 4 (week 26)) | further results
1 | CO/N=C1\CN(c2nc3c(cc2F)c(=O)c(C(=O)O)cn3C2CC2)CC1CN (racemic) [GEMI, (R,S)-7-(3-aminomethyl-4-methoxyiminopyrrolidin-1-yl)-1-cyclopropyl-6-fluoro-4-oxo-1,4-dihydro-1,8-naphthyridine-3-carboxylic acid] | 20 days per 100 patients | 0.20 (1.43) days | 0 (0-16) days | 2.3% | 5 | 3.3% | 7 | 29.0% | 87.1 (176/202) % | 80.9 (148/183) % | 71.0% and 71.0 (120/169) % | effectiveness of acute treatment compared with CLARI ([1]; 5 days GEMI vs 7 days CLARI): as effective as; bacteriological success rates compared with CLARI ([1]; all study visits, significantly higher at late follow-up days 28-35): higher; Median difference gemifloxacin-clarithromycin in RTI-related hospitalization days (95% CI) ([2]; 26-week study period, ITT): 0 (0, 0) days; treatment difference in RTI-related hospitalizations ([2]; GEMI minus CLARI, 26 weeks): −3.87%; treatment difference in patients hospitalized for RTI-related conditions ([2]; GEMI minus CLARI, 26 weeks): −3.91%; preventing further exacerbations versus CLARI ([3]; 6 month period following start of therapy, GEMI 320 mg o.d./5 days vs CLARI 500 mg b.d./7 days): superior to CLARI; long-term clinical outcomes in AECB compared to clarithromycin ([3]; GLOBE conclusions): superior; fewer patients with a recurrence of AECB compared with CLARI ([3]; by week 26, relative reduction (29.0% vs. 41.5%)): 30%; Difference GEMI-CLARI in % patients with no recurrences ([3]; visit 2 (day 28-35)): 6.3%; Difference GEMI-CLARI in % patients with no recurrences ([3]; visit 3 (week 12)): 6.4%; Difference GEMI-CLARI in % patients with no recurrences ([3]; visit 4 (week 26)): 12.5% and 12.5^b %; time to H. influenzae eradication compared with CLARI [4]: significantly faster
2 | CC[C@H]1OC(=O)[C@H](C)[C@@H](O[C@H]2C[C@@](C)(OC)[C@@H](O)[C@H](C)O2)[C@H](C)[C@@H](O[C@@H]2O[C@H](C)C[C@H](N(C)C)[C@H]2O)[C@](C)(OC)C[C@@H](C)C(=O)[C@H](C)[C@@H](O)[C@]1(C)O [CLARI, clarithromycin, reference compound] | 37 days per 100 patients | 0.37 (1.60) days | 0 (0-11) days | 6.3% | 14 | 7.1% | 16 | 41.5% | 80.8 (173/214) % | 74.4 (131/176) % | 58.5% and 58.5 (100/171) % | 
